Assay results published in ChEMBL document CHEMBL3868582, “Discovery, pharmacology, and clinical profile of omadacycline, a novel aminomethylcycline antibiotic” (Bioorg Med Chem, 2016).
Values after ≈ are worked out from the molar mass of the structure shown.

Key:
OAT1 (SLC22A6) = OAT1 (SLC22A6) (Homo sapiens, UniProt Q4U2R8); test: Inhibition of human OAT1 expressed in HEK293 cells at 25 uM; type: cell-based
OATP1B1 = OATP1B1 (Homo sapiens, UniProt Q9Y6L6); test: Inhibition of OATP1B1 (unknown origin) in HEK293 cells at 100 uM; type: cell-based; conditions: HEK293 cells expressing OATP1B1
OATP1B3 = OATP1B3 (Homo sapiens, UniProt Q9NPD5); test: Inhibition of OATP1B3 (unknown origin) in HEK293 cells at 100 uM; type: cell-based; conditions: HEK293 cells expressing OATP1B3
[1] = Drug excretion in human feces at 36.6 uCi, po administered as single dose; type: ADME, organism-based; conditions: in vivo
[2] = Drug excretion in human urine at 36.6 uCi, po administered as single dose; type: ADME, organism-based; conditions: in vivo
[3] = Fraction absorbed in human urine at 36.6 uCi, po administered as single dose; type: ADME, organism-based; conditions: in vivo
[4] = Cmax in human at 300 mg, po; type: ADME; parameters: dose 300 mg, route oral; conditions: in vivo
[5] = Oral bioavailability in human 300 mg; type: ADME, organism-based; conditions: in vivo
[6] = Tmax in human at 300 mg, po; type: ADME; conditions: in vivo
[7] = Half life in human at 300 mg, po; conditions: in vivo
Clostridioides difficile = test: Antibacterial activity against Clostridium difficile infected in hamster model assessed as median survival time; type: functional
Streptococcus pneumoniae [8] = test: Antibacterial activity against Streptococcus pneumoniae PBS1399; type: functional
Streptococcus pneumoniae [9] = test: Antibacterial activity against Streptococcus pneumoniae PBS1399 infected in mouse assessed as protection against bacterial infection by measuring mouse survival administered intravenously as single dose after 2 hrs of infection measured on day 7; type: functional; conditions: PBS1399, iv, read-out: PD50
Haemophilus influenzae [10] = test: Antibacterial activity against Haemophilus influenzae PBS981; type: functional
Haemophilus influenzae [11] = test: Antibacterial activity against Haemophilus influenzae PBS981 infected in CD-1 mouse assessed as reduction in bacterial load in lungs administered intravenously as single dose after 2 hrs of infection measured after 24 hrs post treatment; type: functional; conditions: PBS981, iv
[12] = Cmax in human at 100 mg, iv administered as infusion; type: ADME, organism-based; parameters: dose 100 mg, route intravenous; conditions: in vivo
[13] = AUC(0 to 24 hrs) in human at 100 mg, iv; type: ADME; parameters: dose 100 mg, time < 24 hr, route intravenous; conditions: in vivo
[14] = AUC(0 to 24 hrs) in human at 300 mg, po; type: ADME; parameters: time < 24 hr, dose 300 mg, route oral; conditions: in vivo
[15] = Systemic clearance in human at 100 mg, iv or 300 mg, po; type: ADME, organism-based; conditions: in vivo
[16] = Terminal half life in human at 100 mg, iv or 300 mg, po; conditions: in vivo
[17] = Protein binding in human plasma at 0.1 to 10 ug/ml; type: ADME, cell-free; conditions: read-out: PPB (converted)
[18] = Volume of distribution in human at 100 mg, iv or 300 mg, po; type: ADME, organism-based; conditions: in vivo
Staphylococcus aureus [19] = test: Antibacterial activity against Staphylococcus aureus USA300; type: functional
Staphylococcus aureus [20] = test: Antibacterial activity against Staphylococcus aureus USA400; type: functional
Staphylococcus aureus [21] = test: Antibacterial activity against Staphylococcus aureus USA300 in mouse thigh wound infection model assessed as reduction in bacterial load administered intravenously as single dose after 2 hrs of infection measured after 24 hrs post treatment; type: functional; conditions: USA300, iv
Staphylococcus aureus [22] = test: Antibacterial activity against Staphylococcus aureus USA400 in mouse thigh wound infection model assessed as reduction in bacterial load administered intravenously as single dose after 2 hrs of infection measured after 24 hrs post treatment; type: functional; conditions: USA400, iv
[23] = Cmax in human at 50 mg, iv q12h; type: ADME, organism-based; parameters: dose 50 mg, route intravenous; conditions: in vivo
[24] = AUC(0 to 24 hrs) in human at 50 mg, iv q12h; type: ADME, organism-based; parameters: dose 50 mg, time < 24 hr, route intravenous; conditions: in vivo
[25] = Systemic clearance in human at 50 mg, iv q12h; type: ADME, organism-based; conditions: in vivo
[26] = Terminal half life in human at 50 mg, iv q12h; type: ADME, organism-based; conditions: in vivo, read-out: beta t1/2
[27] = Protein binding in human plasma; type: ADME, cell-free; conditions: read-out: PPB
[28] = Cmax in human at 1.5 mg/kg, iv q24h; type: ADME, organism-based; parameters: dose 1.5 mg/kg, route intravenous; conditions: in vivo
[29] = Cmax in human at 100 mg, po q12h; type: ADME, organism-based; parameters: dose 100 mg, route oral; conditions: in vivo
[30] = AUC(0 to 24 hrs) in human at 1.5 mg/kg, iv q24h; type: ADME, organism-based; parameters: dose 1.5 mg/kg, time < 24 hr, route intravenous; conditions: in vivo
[31] = AUC(0 to 24 hrs) in human at 100 mg, po q12h; type: ADME, organism-based; parameters: time < 24 hr, dose 100 mg, route oral; conditions: in vivo
[32] = Systemic clearance in human at 1.5 mg/kg, iv q24h or 100 mg, po q12h; type: ADME, organism-based; conditions: in vivo
[33] = Terminal half life in human at 1.5 mg/kg, iv q24h or 100 mg, po q12h; type: ADME, organism-based; conditions: in vivo, read-out: beta t1/2
[34] = Oral bioavailability in human at 100 mg administered q12h; type: ADME, organism-based; conditions: in vivo

OATP1B3, sequence (Q9NPD5 whole entry): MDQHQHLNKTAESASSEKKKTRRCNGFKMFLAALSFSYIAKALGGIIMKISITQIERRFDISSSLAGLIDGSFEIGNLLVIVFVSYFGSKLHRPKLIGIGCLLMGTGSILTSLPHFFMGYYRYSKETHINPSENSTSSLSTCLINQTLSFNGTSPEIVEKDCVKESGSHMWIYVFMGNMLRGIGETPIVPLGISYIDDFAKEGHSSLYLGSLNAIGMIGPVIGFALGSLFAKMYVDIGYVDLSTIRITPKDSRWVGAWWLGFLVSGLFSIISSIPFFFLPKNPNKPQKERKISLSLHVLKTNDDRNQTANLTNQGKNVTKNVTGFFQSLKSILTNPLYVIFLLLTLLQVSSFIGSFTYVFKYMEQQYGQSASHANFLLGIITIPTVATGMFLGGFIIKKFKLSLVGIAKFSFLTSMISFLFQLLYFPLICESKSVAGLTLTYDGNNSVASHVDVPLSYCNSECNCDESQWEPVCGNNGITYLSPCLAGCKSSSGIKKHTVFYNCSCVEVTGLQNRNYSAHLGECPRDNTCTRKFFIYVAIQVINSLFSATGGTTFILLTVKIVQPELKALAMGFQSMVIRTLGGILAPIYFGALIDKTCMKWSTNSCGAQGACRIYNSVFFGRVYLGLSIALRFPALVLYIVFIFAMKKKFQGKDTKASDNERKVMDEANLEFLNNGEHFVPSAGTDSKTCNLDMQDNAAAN
OAT1 (SLC22A6), sequence (Q4U2R8 whole entry): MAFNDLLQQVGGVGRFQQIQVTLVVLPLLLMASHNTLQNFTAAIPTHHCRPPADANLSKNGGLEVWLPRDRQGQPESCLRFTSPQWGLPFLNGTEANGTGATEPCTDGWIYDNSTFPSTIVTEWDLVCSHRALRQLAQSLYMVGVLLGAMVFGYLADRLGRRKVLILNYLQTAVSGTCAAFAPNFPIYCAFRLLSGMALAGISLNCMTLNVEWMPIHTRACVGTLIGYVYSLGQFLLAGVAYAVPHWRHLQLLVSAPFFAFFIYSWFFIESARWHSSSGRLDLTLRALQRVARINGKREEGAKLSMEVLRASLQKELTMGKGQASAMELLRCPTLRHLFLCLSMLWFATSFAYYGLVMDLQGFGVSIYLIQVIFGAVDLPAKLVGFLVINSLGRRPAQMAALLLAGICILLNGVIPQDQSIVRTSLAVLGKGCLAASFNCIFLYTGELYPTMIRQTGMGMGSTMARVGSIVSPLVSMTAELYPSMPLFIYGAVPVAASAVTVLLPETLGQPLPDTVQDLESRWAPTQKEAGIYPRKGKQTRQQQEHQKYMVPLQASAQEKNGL
OATP1B1, sequence (Q9Y6L6 whole entry): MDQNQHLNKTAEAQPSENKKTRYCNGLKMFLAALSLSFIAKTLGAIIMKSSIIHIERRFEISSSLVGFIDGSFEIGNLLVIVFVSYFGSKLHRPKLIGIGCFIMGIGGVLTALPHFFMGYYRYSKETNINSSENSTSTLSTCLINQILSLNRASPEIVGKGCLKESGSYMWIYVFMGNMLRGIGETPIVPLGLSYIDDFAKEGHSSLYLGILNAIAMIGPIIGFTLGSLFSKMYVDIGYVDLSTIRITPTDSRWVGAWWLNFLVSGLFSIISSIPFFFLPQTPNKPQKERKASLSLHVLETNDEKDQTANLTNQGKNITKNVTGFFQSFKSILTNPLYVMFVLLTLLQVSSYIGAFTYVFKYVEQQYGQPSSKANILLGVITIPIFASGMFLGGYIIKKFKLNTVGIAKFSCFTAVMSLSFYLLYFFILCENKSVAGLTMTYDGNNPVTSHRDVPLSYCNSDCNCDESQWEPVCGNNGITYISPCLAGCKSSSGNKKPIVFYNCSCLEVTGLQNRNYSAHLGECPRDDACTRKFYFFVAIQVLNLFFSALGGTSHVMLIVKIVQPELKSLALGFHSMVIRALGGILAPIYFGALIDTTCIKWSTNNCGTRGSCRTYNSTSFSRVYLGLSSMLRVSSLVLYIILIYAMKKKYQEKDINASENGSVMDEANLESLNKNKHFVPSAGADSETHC

CN(C)c1cc([14CH2]NCC(C)(C)C)c(O)c2c1C[C@H]1C[C@H]3[C@H](N(C)C)C(O)=C(C(N)=O)C(=O)[C@@]3(O)C(O)=C1C2=O
inhibition at 25 µM (OAT1 (SLC22A6)): 32.1% | inhibition at 100 µM (OATP1B1): 10.1% | inhibition at 100 µM (OATP1B3): 10.1% | Drug excretion [1]: 81.1 %ID | Drug excretion [2]: 14.4 %ID | Fabs [3]: 40%

CN(C)c1cc(CNCC(C)(C)C)c(O)c2c1C[C@H]1C[C@H]3[C@H](N(C)C)C(O)=C(C(N)=O)C(=O)[C@@]3(O)C(O)=C1C2=O.Cc1ccc(S(=O)(=O)O)cc1 [OMADACYCLINE TOSYLATE]
Cmax [4]: 540 ng/mL | bioavailability [5]: 34.5% | Tmax [6]: 3 h | half-life [7]: 17 h

CCC[C@@H]1C[C@@H](C(=O)N[C@@H]([C@H]2O[C@H](SC)[C@H](O)[C@@H](O)[C@H]2O)[C@H](C)Cl)N(C)C1 [CLINDAMYCIN]
MST (Clostridioides difficile): 4 days

CN(C)c1ccc(O)c2c1C[C@H]1C[C@H]3[C@H](N(C)C)C(O)=C(C(N)=O)C(=O)[C@@]3(O)C(O)=C1C2=O [MINOCYCLINE]
MIC (Streptococcus pneumoniae [8]): 0.25 µg/mL (≈ 0.546 µM) | ED50 (Streptococcus pneumoniae [9]): 3.44 mg/kg

CN(C)c1cc([14CH2]NCC(C)(C)C)c(O)c2c1C[C@H]1C[C@H]3[C@@H](N(C)C)C(O)=C(C(N)=O)C(=O)[C@@]3(O)C(O)=C1C2=O
Drug excretion [2]: 14.4 %ID

CCCCCCCCCC(=O)N[C@@H](Cc1c[nH]c2ccccc12)C(=O)N[C@@H](CC(N)=O)C(=O)N[C@@H](CC(=O)O)C(=O)N[C@@H]1C(=O)NCC(=O)N[C@@H](CCCN)C(=O)N[C@@H](CC(=O)O)C(=O)N[C@H](C)C(=O)N[C@@H](CC(=O)O)C(=O)NCC(=O)N[C@H](CO)C(=O)N[C@@H]([C@H](C)CC(=O)O)C(=O)N[C@@H](CC(=O)c2ccccc2N)C(=O)O[C@@H]1C [DAPTOMYCIN]
MIC (Streptococcus pneumoniae [8]): 0.25 µg/mL (≈ 0.154 µM) | ED50 (Streptococcus pneumoniae [9]): > 100 mg/kg

C[C@H]1COc2c(N3CCN(C)CC3)c(F)cc3c(=O)c(C(=O)O)cn1c23.C[C@H]1COc2c(N3CCN(C)CC3)c(F)cc3c(=O)c(C(=O)O)cn1c23.O [LEVOFLOXACIN]
ED50 (Streptococcus pneumoniae [9]): > 18 mg/kg | MIC (Haemophilus influenzae [10]): < 0.06 µg/mL | ED50 (Haemophilus influenzae [11]): 2.4 mg/kg

CN(C)c1cc(CNCC(C)(C)C)c(O)c2c1C[C@H]1C[C@H]3[C@H](N(C)C)C(O)=C(C(N)=O)C(=O)[C@@]3(O)C(O)=C1C2=O.Cl
Cmax [12]: 1800 ng/mL | Cmax [4]: 700 ng/mL | AUC [13]: 8800 ng·h/mL | AUC(0-t) at 24 h [14]: 5900 ng·h/mL | CL [15]: 17.1 L/h | half-life [16]: 17 h | fraction unbound [17]: 0.79 | bioavailability [5]: 34.5% | Vd [18]: 333 to 640 L

C[C@H]1c2cccc(O)c2C(=O)C2=C(O)[C@]3(O)C(=O)C(C(N)=O)=C(O)[C@@H](N(C)C)[C@@H]3[C@@H](O)[C@@H]21.O [DOXYCYCLINE]
MIC (Streptococcus pneumoniae [8]): 0.125 µg/mL | ED50 (Streptococcus pneumoniae [9]): 10.3 mg/kg

CC(=O)NC[C@H]1CN(c2ccc(N3CCOCC3)c(F)c2)C(=O)O1 [LINEZOLID]
ED50 (Streptococcus pneumoniae [9]): 38.8 mg/kg

CO/N=C(\C(=O)N[C@@H]1C(=O)N2C(C(=O)O)=C(CSc3nc(=O)c(O)nn3C)CS[C@H]12)c1csc(N)n1 [CEFTRIAXONE]
MIC (Streptococcus pneumoniae [8]): 0.015 µg/mL (≈ 0.027 µM) | ED50 (Streptococcus pneumoniae [9]): 0.37 mg/kg | MIC (Haemophilus influenzae [10]): < 0.06 µg/mL | ED50 (Haemophilus influenzae [11]): 0.1 mg/kg

CN(C)c1cc(NC(=O)CNC(C)(C)C)c(O)c2c1C[C@H]1C[C@H]3[C@H](N(C)C)C(O)=C(C(N)=O)C(=O)[C@@]3(O)C(O)=C1C2=O [TIGECYCLINE]
MIC (Staphylococcus aureus [19]): 0.125 µg/mL (≈ 0.213 µM) | MIC (Staphylococcus aureus [20]): 0.06 µg/mL (≈ 0.102 µM) | MIC (Streptococcus pneumoniae [8]): 0.125 µg/mL (≈ 0.213 µM) | ED50 (Staphylococcus aureus [21]): 0.45 mg/kg | ED50 (Staphylococcus aureus [22]): 0.46 mg/kg | ED50 (Streptococcus pneumoniae [9]): 0.91 mg/kg | MIC (Haemophilus influenzae [10]): 0.25 µg/mL (≈ 0.427 µM) | ED50 (Haemophilus influenzae [11]): 2.31 mg/kg | Cmax [23]: 870 ng/mL | AUC [24]: 4700 ng·h/mL | CL [25]: 23.8 L/h | half-life [26]: 37 to 66 h | fraction unbound [27]: 0.13 to 0.31

O=C(O)c1cn(C2CC2)c2cc(N3CCNCC3)c(F)cc2c1=O [CIPROFLOXACIN]
MIC (Haemophilus influenzae [10]): < 0.06 µg/mL | ED50 (Haemophilus influenzae [11]): 1.16 mg/kg

CC[C@H]1OC(=O)[C@H](C)[C@@H](O[C@H]2C[C@@](C)(OC)[C@@H](O)[C@H](C)O2)[C@H](C)[C@@H](O[C@@H]2O[C@H](C)C[C@H](N(C)C)[C@H]2O)[C@](C)(O)C[C@@H](C)CN(C)[C@H](C)[C@@H](O)[C@]1(C)O [AZITHROMYCIN]
MIC (Streptococcus pneumoniae [8]): 0.03 µg/mL (≈ 0.0401 µM) | ED50 (Streptococcus pneumoniae [9]): 3.31 mg/kg

CN[C@H](CC(C)C)C(=O)N[C@H]1C(=O)N[C@@H](CC(N)=O)C(=O)N[C@H]2C(=O)N[C@H]3C(=O)N[C@H](C(=O)N[C@H](C(=O)O)c4cc(O)cc(O)c4-c4cc3ccc4O)[C@H](O)c3ccc(c(Cl)c3)Oc3cc2cc(c3O[C@@H]2O[C@H](CO)[C@@H](O)[C@H](O)[C@H]2O[C@H]2C[C@](C)(N)[C@H](O)[C@H](C)O2)Oc2ccc(cc2Cl)[C@H]1O [VANCOMYCIN]
MST (Clostridioides difficile): 2 days | MIC (Streptococcus pneumoniae [8]): 0.5 µg/mL (≈ 0.345 µM) | ED50 (Streptococcus pneumoniae [9]): 3.3 mg/kg

CN(C)[C@@H]1C(O)=C(C(N)=O)C(=O)[C@@]2(O)C(O)=C3C(=O)c4c(O)c(NC(=O)CN5CCCC5)cc(F)c4C[C@H]3C[C@@H]12 [ERAVACYCLINE]
Cmax [28]: 1900 ng/mL | Cmax [29]: 160 ng/mL | AUC at 24 h [30]: 7900 ng·h/mL | AUC at 24 h [31]: 3100 ng·h/mL | clearance [32]: 297 mL/min | half-life [33]: 10 to 14 h | bioavailability [34]: 28% | fraction unbound [27]: 0.13 to 0.21
